Reference: patent US10898421B2, “Anti-dandruff composition comprising pycnidione and epolone” (Croda International PLC, priority 2015, dated 2021)
Like-named read-outs stand apart in the source and are kept apart here.

Experiments:
[1] = test system: Adult human epidermal keratinocytes (Heka); test: Cytotoxicity against keratinocyte cells (Alamar blue); assay type: cell-based; settings: for Keratinocyte MIC: 24 hrs treatment
Description: (§1) Adult human epidermal keratinocytes (Heka) isolated from skin (Invitrogen #C-005-5C) were grown and maintained in 15 mL of EPilife medium (Invitrogen #M-EPI-500) supplemented with HKGS growth supplements (Invitrogen #S-001-5) (0.2% v/v bovine pituitary extract (BPE), 5 μg/mL bovine insulin, 0.18 μg/mL hydrocortisone, 5 μg/mL bovine transferrin, 0.2 ng/mL human epidermal growth factor) and 50 μg/mL gentamicin (Sigma #G1397-10ML) in T75 cm2 cell culture flasks (VWR #CABD353136) and incubated at 37° C. in a humidified atmosphere of 5% CO2. Growth medium was refreshed every 2 days until the cells reached 50% confluency and then the medium was refreshed every 24 hours until 80% confluency was obtained.
(§2) At 80% confluency, the cells were counted, diluted and plated into 96 well treated cell culture plates (VWR #29442-054) at a cell density of 10000 cells per well in 90 μL of respective growth medium. All media used for the assay were the same without the addition of antibiotics. The plates were incubated at 37° C. in a humidified atmosphere of 5% CO2 to allow cells to adhere to the plates for 24 hrs before treatment. DMSO was used as the vehicle at a final concentration of 1% in the wells.
(§3) All compounds to be tested were resolublised in sterile DMSO (Sigma #D2438) and a dilution series was prepared for each cell line using the respective cell culture growth medium of which 10 μL were added to the respective assay plate well yielding eight final concentrations ranging from 128 μg/mL to 1 μg/mL per well (final well volume of 100 μL) and incubated at 37° C. in a humidified atmosphere of 5% CO2 for 24 hrs.
(§4) All samples were tested in triplicate. Each plate contained eight un-inoculated positive controls (media+20% DMSO), eight untreated negative controls (Media+20% DMSO+cells). Alamar blue (Invitrogen #Dal1100) was added, 24 hrs after treatment, to each well at 10% of the culture volume (11 μL in 100 μL). Fluorescence was monitored using a BioTek Synergy HT plate reader at 530/25 excitation, 590/35 emission and 35 sensitivity at both time zero and 4 hrs after Alamar blue was added. After subtracting the time zero emission 590 nm measurement from the final reading the inferred percentage of microorganism survival relative to vehicle control wells were calculated and the IC50 was determined.

[2] = as above; assay type: cell-based, human; settings: human
Description: as §1, §2, §3, §4

[3] = Cytotoxicity against fibroblast cells (Alamar blue); assay type: cell-based, human; settings: human, 24 hrs treatment, Alamar blue, read-out: Fibroblast IC50
Description: (§5) Human foreskin BJ fibroblast cells (ATCC CRL-2522) were grown and maintained in 15 mL of Eagle's minimal essential medium (Sigma M5650) supplemented with 10% fetal bovine serum (VWR #CA95043-976) and 100 μU penicillin and 0.1 mg/mL streptomycin (VWR #CA12001-692) in T75 cm2 cell culture flasks (VWR #CABD353136) at 37° C. in a humidified atmosphere of 5% CO2. Culture medium was refreshed every two to three days and cells were not allowed to exceed 80% confluency.
as §2, §3, §4

[4] = test system: Human foreskin BJ fibroblast cells (ATCC CRL-2522); test: as above; assay type: cell-based; settings: for Fibroblast MIC: 24 hrs treatment
Description: as §5, §2, §3, §4

[5] = Stability of pycnidione formulated in off-the-shelf shampoo composition; assay type: physicochemical; settings: J&J baby shampoo, after a two month period
[6] = test system: Malassezia furfur (ATCC #38593); test: Anti-fungal activity against Malassezia furfur (96 well broth assay, Alamar blue); assay type: cell-based; settings: ATCC38593, 120 h; for MIC: visible growth; for IC50: read-out: M. furfur IC50
Description: The terms Minimum Inhibitory Concentration and Half Maximal Inhibitory Concentration will be understood to have the following meanings. • Minimum Inhibitory Concentration (MIC) The minimum inhibitory concentration (MIC) will be understood to represent the lowest concentration of an anti-microbial that will inhibit the visible growth of a microorganism after overnight incubation. • Half Maximal Inhibitory Concentration (IC50) The half maximal inhibitory concentration (IC50) is a measure of the effectiveness of a substance in inhibiting a spec biological or biochemical function. This quantitative measure indicates how much of a particular drug or other substance (inhibitor) is needed to inhibit a given biological process (or component of a process, i.e. an enzyme, cell, cell receptor or microorganism) by half. IC50 represents the concentration of an active that is required for 50% inhibition in-vitro.
Malassezia furfur (ATCC #38593) was cultured on Media C agar for 7 days at 37° C. Yeast colonies were then harvested into 0.9% saline sterile diH2O and diluted to approximately 1.5×10^6 CFU/mL using a 0.5 MacFarland standard (Fisher #R20410) to create an assay inoculum. Assay inoculum was added to sterile Media C broth to a final concentration of 4.5×10^4 CFU/mL. Assays were carried out in 96 well plates with a final well volume of 100 μL.
Extract fractions and pure compounds were tested in triplicate against each organism. Extract fractions and pure compounds were re-suspended in sterile 20% DMSO.
as §4, with “Each” for “All samples were tested in triplicate. Each”, “DMSO+organism), and one column containing a concentration range of a ketoconazole as a control antibiotic. The assay plate was incubated at 37° C. for 5 days after which growth within the wells were visualised and photographed with a UVP Biospectrum 500 imaging system.” for “DMSO+cells).”, “blue” for “blue (Invitrogen #Dal1100)”, “then added” for “added, 24 hrs after treatment,”, “hours” for “hrs”

[7] = at 8 μg/ml, where inhibition of Malassezia yeasts is retained
[8] = adult human epidermal keratinocytes (Heka), 24 hrs treatment, Alamar blue, read-out: Keratinocyte IC50
[9] = human foreskin BJ fibroblast cells (ATCC CRL-2522)

Row | MIC ([6]; 37° C., 5 days) [µg/mL] | IC50 ([6]; 37° C., 5 days, Alamar blue) [µg/mL] | SMILES | Keratinocyte MIC [1] [µg/mL] | cell line cytotoxicity at lower concentrations (keratinocyte) [1, 7] | CC50 at 24 h ([2]; text of b135, read-out: IC50, toxicity to keratinocyte cells) [µg/mL] | CC50 at 24 h [3] [µg/mL] | Fibroblast MIC [4] [µg/mL] | cell line cytotoxicity at lower concentrations (fibroblast) [4, 7] | stability of shampoo composition [5] | IC50 [6] [µg/mL] | CC50 at 24 h [2, 8] [µg/mL] | CC50 at 24 h [3, 9] [µg/mL]
1 | 64 | 48 | Cc1cc(=O)c(O)cc2c1C[C@H]1CC(C)(C)/C=C/C[C@@]3(C)Oc4cc(O)cc(C)c4C[C@@H]3C[C@H](O)[C@]1(C)O2 [Epolone A, epolone A] | 32 | – | – | – | 32 | – | – | – | 13 | 14
2 | 32 | 24 | C/C1=C\CC(C)(C)/C=C/C[C@@]2(C)Oc3cc(O)c(=O)cc(C)c3C[C@@H]2C[C@H]1O [Epolone B, epolone B] | >128 | – | – | – | >128 | – | – | – | 50 | > 128
3 | – | – | [O-]n1ccccc1=S.[O-]n1ccccc1=S.[Zn+2] [zinc pyrithione, zinc salt of 1-hydroxy-2-pyridinethione, reference compound] | 1 | – | – | – | – | – | – | – | – | –

Row | SMILES | MIC ([6]; 37° C., 5 days) [µg/mL] | IC50 ([6]; 37° C., 5 days, Alamar blue) [µg/mL] | Keratinocyte MIC [1] [µg/mL] | cell line cytotoxicity at lower concentrations (keratinocyte) [1, 7] | CC50 at 24 h ([2]; text of b135, read-out: IC50, toxicity to keratinocyte cells) [µg/mL] | CC50 at 24 h [3] [µg/mL] | Fibroblast MIC [4] [µg/mL] | cell line cytotoxicity at lower concentrations (fibroblast) [4, 7] | stability of shampoo composition [5] | IC50 [6] [µg/mL] | CC50 at 24 h [2, 8] [µg/mL] | CC50 at 24 h [3, 9] [µg/mL]
4 | Cc1cc(=O)c(O)cc2c1C[C@H]1CC(C)(C)/C=C/C[C@@]3(C)Oc4cc(O)c(=O)cc(C)c4C[C@@H]3C[C@H](O)[C@]1(C)O2 [Pycnidione, pycnidione] | 8 | – | 64 | no cell line cytotoxicity was observed | 15 | 11 | 64 | no cell line cytotoxicity was observed | remained stable | 6 | – | –
